From patent publication US8597922B2, “Methods and compositions for producing olefins” (LS9, Inc., priority 2007, dated 2013)

Key:
[1] = tested on: ATCC 8456 cell free extract; experiment: Conversion of free fatty acids into α-olefins by ATCC 8456 cell free extract; format: biochemical, Jeotgalicoccus sp. ATCC 8456; conditions: for α-olefin formed from the fatty acid by cell free extract: 1 mM free fatty acid salt, room temperature, 3 h
Procedure: A cell free extract of ATCC 8456 was used to convert free fatty acids into α-olefins. The cell free extract was generated using the following procedure: ATCC 8456 cells were grown in TSBYE medium (3% Tryptic Soy Broth+0.5% Yeast Extract) at 30° C. for 24 h with shaking. The cells were then pelleted from the culture by centrifuging at 3,700 rpm for 20 min. The cell pellet was then resuspended in 50 mM Tris buffer pH 7.5 with 0.1 M NaCl and 2.0 mM dithiothreitol to a concentration of 0.1 g/mL cells. To this cell slurry, 200 units/mL of lysostaphin (Sigma) were added on ice. The cell lysis reaction was allowed to proceed for 30 min. The cells were then sonicated at 12 W on ice for three cycles of 1.5 sec of sonication followed by 1.5 sec of rest. Sonication lasted for a total of 9 sec. This procedure was repeated 5 times with a 1 min interval between each sonication cycle. The lysed cells were then centrifuged at 12,000 rpm for 10 min to pellet the cell debris. The supernatant (i.e., cell free extract) was then removed and used for the conversion of free fatty acids to α-olefins.
First, a 5% stock solution of sodium or potassium stearate was made in 1% Tergitol solution (Sigma, St. Louis, Mo.). Next, 6 μL of the stock solution was added to 1 mL of the cell free extract at room temperature to obtain a final concentration of 1 mM free fatty acid salt. The reaction was conducted at room temperature for 3 h. The α-olefins were recovered by adding 200 μL of ethyl acetate to the mixture, vortexing briefly, centrifuging briefly, and then removing the organic phase. The α-olefins were detected using GC/MS.
In sample 1 (TIC1; black line in FIG. 5), no stearic acid was added to the cell free extract. In sample 2 (TIC3; blue line in FIG. 5), the cell free extract was replaced with 50 mM Tris pH 7.5 buffer with 0.1 M sodium chloride to which stearic acid was added. In sample 3 (TICS; red line in FIG. 5), stearic acid was added to the cell free extract. The peak at 7.62 min had the same retention time and the same mass spectra as a 1-heptadecene standard (Sigma). When eicosanoic acid was added under similar conditions, 1-nonadecene was formed.
When the cell free extract was supplemented with several co-factors in 1 mM concentrations, no increase in α-olefin synthesis was observed. The co-factors examined were NAD+, NADP+, NADH, NADPH, FADH2, SAM, ATP, and CoA. In addition, Mg^2+ was examined at a 10 mM concentration. The co-factor requirement was also tested by dialyzing the cell free extract with a 10 kDa cut-off membrane for 1.5 h in a volume 200-fold greater than the cell extract volume using a dialysis buffer: 50 mM Tris, pH 7.5 with 0.1 M sodium chloride. No decrease in α-olefin synthesis was observed after dialysis. Additionally, no decrease in α-olefin synthesis was observed when 10 mM EDTA pH 7.5 was added to the reaction mixture.

[2] = tested on: ATCC 8456 cells; experiment: Fatty acid feeding of ATCC 8456 cells, α-olefins analyzed by GC-MS; format: cell-based, Jeotgalicoccus sp. ATCC 8456; conditions: fatty acid fed at 0.5 g/l (0.05%), 40-48 h at 30° C.; for α-olefin whose production increased upon fatty acid feeding: olefins not normally produced by ATCC 8456
Procedure: ATCC 8456 cells were grown in 15 mL TSBYE medium (3% Tryptic Soy Broth+0.5% Yeast Extract). Fatty acids were added to the culture medium at final concentrations of 0.5 g/l (0.05%). After growth for 40-48 h at 30° C., cells from 5 mL of culture were pelleted, resuspended in 1 mL methanol, sonicated for 30 min, and extracted with 4 mL hexane. After solvent evaporation, samples were resuspended in 0.1 mL hexane and analyzed by GC-MS.

[3] = tested on: ORF880; experiment: In vitro reaction rates of purified ORF880 with different fatty acid substrates; format: biochemical, Jeotgalicoccus sp. ATCC8456; conditions: 1.0 μM ORF880, 200 μM fatty acid salt, pH 7.2, room temperature, between 20 min and 47 min
Procedure: The genomic DNA encoding Jeotgalicoccus sp. ATCC8456_orf880 was cloned into the NdeI and XhoI sites of vector pET15b (Novagen) under the control of the T7 promoter for expression in and purification from E. coli. This plasmid expressed an N-terminal His-tagged version of 8456_orf880.
An E. coli BL21 strain (DE3) (Invitrogen) was transformed with pET15b-orf880 using routine chemical transformation techniques. Protein expression was carried out by first inoculating a colony of the E. coli strain in 5 mL of LB media supplemented with 100 mg/L of carbenecillin and shaken overnight at 37° C. to produce a starter culture. This starter culture was used to inoculate 1 L of LB media supplemented with 100 mg/L of carbenecillin. The culture was shaken at 37° C. until an OD600 value of 0.6 was reached. The culture was placed on ice for 10 min before IPTG was added to a final concentration of 250 μM. The culture was then shaken at 18° C. for approximately 18 h. The culture was then centrifuged at 3,700 rpm for 20 min at 4° C. The pellet was then resuspended in 30 mL of buffer containing 100 mM sodium phosphate buffer at pH 7.2 supplemented with Bacterial ProteaseArrest (GBiosciences). The cells were then sonicated at 12 W on ice for 9 sec with 1.5 sec of sonication followed by 1.5 sec of rest. This procedure was repeated 5 times with one min intervals between each sonication cycle. The cell free extract was centrifuged at 10,000 rpm for 30 min at 4° C. 5 mL of Ni-NTA (Qiagen) was added to the supernatant and the mixture was gently stirred at 4° C. The slurry was passed over a column removing the resin from the lysate. The resin was then washed with 30 mL of buffer containing 100 mM sodium phosphate buffer at pH 7.2 plus 30 mM imidazole. Finally, the protein was eluted with 15 mL of 100 mM sodium phosphate buffer at pH 7.2 plus 250 mM imidazole. The protein solution was dialyzed with 200 volumes of 100 mM sodium phosphate buffer at pH 7.2. Protein concentration was determined using the Bradford assay (Biorad). 125 μg/mL of protein was obtained.
In order to assay the in vitro fatty acid substrate specificity of ORF880, potassium salts of the following fatty acids were prepared: tetradecanoic acid, hexadecanoic acid, octadecanoic acid, eicosanoic acid, and behenic acid (Sigma). The fatty acid solutions were made with 2% ethanol and 2% Tergitol solution (Sigma, St. Louis, Mo.) to a final concentration of 20 mM.
The kinetics of the decarboxylation reaction was determined using potassium octadecanoate. A 200 μL reaction was prepared with the following reactant concentrations: 1.25 μM of ORF880, 200 μM of potassium octadecanoate, […], and 100 mM sodium phosphate buffer at pH 7.2. […] Samples were analyzed using GC/MS using the alkane-1 splitless method, which is performed using the following parameters: run time: 20 min; column: HP-5-MS Part No. 19091S-433E (length of 30 meters; I.D.: 0.25 mm narrowbore; film: 0.25 μM); sample: standard ethyl acetate extraction; inject: 1 μL Agilent 6850 inlet; inlet: 300° C. splitless; carrier gas: helium; flow: 1.3 mL/min; oven temp: 100° C. hold 5 min, 320 at 20° C./min, 320 hold 5 min; det: Agilent 5975B VL MSD; det. temp: 300° C.; scan: 50-500 M/Z. Calibration curves were generated using 1-heptadecene dissolved in ethyl acetate. Based upon this analysis, the product production was determined to be linear from 5 min to 60 min. […]

Compound	effect of co-factor supplementation on α-olefin synthesis ([1]; co-factor at 1 mM)	Activity (nM alkene produced/min) [3]	also measured
CC(C)(COP(=O)(O)OP(=O)(O)OC[C@H]1O[C@@H](n2cnc3c(N)ncnc32)[C@H](O)[C@@H]1OP(=O)(O)O)[C@@H](O)C(=O)NCCC(=O)NCCS [CoA]	no increase	–	–
C[S+](CC[C@H](N)C(=O)[O-])C[C@H]1O[C@@H](n2cnc3c(N)ncnc32)[C@H](O)[C@@H]1O (some centres unmarked) [SAM]	no increase	–	–
CCCCCCCCCCCCCCCCCC(=O)O [octadecanoic acid]	–	77.2 nM alkene produced/min	α-olefin whose production increased upon fatty acid feeding [2]: 1-pentadecene; α-olefin formed from the fatty acid by cell free extract [1]: 1-heptadecene
CCCCCCCCCCCCCC(=O)O [tetradecanoic acid]	–	22.9 nM alkene produced/min	–
CCCCCCCCCCCCCCCC(=O)O [hexadecanoic acid]	–	181.9 nM alkene produced/min	α-olefin whose production increased upon fatty acid feeding [2]: 1-heptadecene
NC(=O)c1ccc[n+]([C@@H]2O[C@H](COP(=O)([O-])OP(=O)(O)OC[C@H]3O[C@@H](n4cnc5c(N)ncnc54)[C@H](O)[C@@H]3O)[C@@H](O)[C@H]2O)c1 [NAD+]	no increase	–	–
O=C(O)CN(CCN(CC(=O)O)CC(=O)O)CC(=O)O [EDTA]	–	–	effect on α-olefin synthesis when added to the reaction mixture ([1]; 10 mM, pH 7.5): no decrease
NC(=O)C1=CN([C@@H]2O[C@H](COP(=O)(O)OP(=O)(O)OC[C@H]3O[C@@H](n4cnc5c(N)ncnc54)[C@H](OP(=O)(O)O)[C@@H]3O)[C@@H](O)[C@H]2O)C=CC1 [NADPH]	no increase	–	–
NC(=O)C1=CN([C@@H]2O[C@H](COP(=O)(O)OP(=O)(O)OC[C@H]3O[C@@H](n4cnc5c(N)ncnc54)[C@H](O)[C@@H]3O)[C@@H](O)[C@H]2O)C=CC1 [NADH]	no increase	–	–
NC(=O)c1ccc[n+]([C@@H]2O[C@H](COP(=O)([O-])OP(=O)(O)OC[C@H]3O[C@@H](n4cnc5c(N)ncnc54)[C@H](OP(=O)(O)O)[C@@H]3O)[C@@H](O)[C@H]2O)c1 [NADP+]	no increase	–	–
Nc1ncnc2c1ncn2[C@@H]1O[C@H](COP(=O)(O)OP(=O)(O)OP(=O)(O)O)[C@@H](O)[C@H]1O [ATP]	no increase	–	–
CCCCCCCCCCCCCCCCCCCC(=O)O [eicosanoic acid]	–	19.7 nM alkene produced/min	increase in 1-nonodecene production ([2]; versus no fatty acid feeding): approximately 18 fold; α-olefin formed from the fatty acid by cell free extract [1]: 1-nonadecene
[Mg+2] [Mg^2+]	–	–	effect of co-factor supplementation on α-olefin synthesis ([1]; 10 mM concentration): no increase
CCCCCCCCCCCCCCCCCCCCCC(=O)O [behenic acid]	–	30.6 nM alkene produced/min	–
Cc1cc2c(cc1C)N(C[C@H](O)[C@H](O)[C@H](O)COP(=O)(O)OP(=O)(O)OC[C@H]1O[C@@H](n3cnc4c(N)ncnc43)[C@H](O)[C@@H]1O)c1[nH]c(=O)[nH]c(=O)c1N2 [FADH2]	no increase	–	–
